| melting point [°C] | Structure (SMILES) |
| --- | --- |
| 264 to 266 | COc1ccc(C(=O)Nc2ccc(-c3ccc(C(C)=O)cc3)c(C)c2)cc1CCCN(C)C.Cl |
| 224 to 227 | COc1ccc(C(=O)Nc2ccc(-c3ccccc3C(C)O)cc2)cc1CCCN(C)C.Cl (stereo not shown) |
| 236 to 240 | COc1ccc(C(=O)Nc2ccc(-c3ccc(C(C)=O)cc3)cc2)cc1CCN(C)C [1(b), N-(4′-Acetyl[1,1′-biphenyl]-4-yl)-3-[2-(dimethylamino)ethyl]-4-methoxybenzamide] |
| 200 to 202 | CCc1ccc(-c2ccc(NC(=O)c3ccc(OC)c(CCCN(C)C)c3)cc2)cc1 [Example 6, 3-[3-(Dimethylamino)propyl]-N-(4′-ethyl[1,1′-biphenyl]-4-yl)-4-methoxybenzamide] |
| 171 to 173 | COc1ccc(C(=O)Nc2ccc(-c3ccc(CO)c(O)c3)cc2)cc1CCCN(C)C [Example 20(b), 3-[3-(Dimethylamino)propyl]-N-[3′-hydroxy-4′-(hydroxymethyl)[1,1′-biphenyl]-4-yl]-4-methoxybenzamide] |
| 68 to 70 | COc1ccc(C(=O)Nc2ccc(-c3ccc(CO)cc3C)c(C)c2)cc1CCCN(C)C [Example 41, 3-[3-(Dimethylamino)propyl]-N-[4′-(hydroxymethyl)-2,2′-dimethyl[1,1′-biphenyl]-4-yl]-4-methoxybenzamide] |
| 166 to 167 | COc1ccc(C(=O)Nc2ccc(-c3ccc(-c4nc(C)no4)cc3C)cc2)cc1CCCN(C)C [Example 71, 3-[3-(Dimethylamino)propyl]-4-methoxy-N-[2′-methyl-4′-(3-methyl-1,2,4-oxadiazol-5-yl)[1,1′-biphenyl]-4-yl]benzamide] |

Reference: patent publication US20050065195A1, “Oxadiazolyl-biphenylcarboxamides and their use as p38 kinase inhibitors” (priority 2001, published 2005)
